Measured values as given in the NIST ThermoML archive (doi:10.1021/je030147g).

Tests used:
[1] = refractive index (Na D-line) (dimensionless); xn = mol fraction of the nth substance listed; details: 101.33 kPa, Liquid
[2] = xn = mol fraction of the nth substance listed; details: 101.33 kPa, Liquid

c1ccncc1 [pyridine] + CCCCN(CCCC)CCCC
x2 = 0
Details	mass density, 298.15 K [kg/m3]	mass density, 303.15 K [kg/m3]	mass density, 308.15 K [kg/m3]	refractive index, 298.15 K	refractive index, 303.15 K	refractive index, 308.15 K	speed of sound, 298.15 K [m/s]	viscosity, 298.15 K [mPa·s]	viscosity, 303.15 K [mPa·s]	viscosity, 308.15 K [mPa·s]
[1]	–	–	–	1.5062	1.5025	1.5016	–	–	–	–
[2]	979	973.7	968.6	–	–	–	1412	0.885	0.82	0.766

ClC(Cl)=C(Cl)Cl [tetrachloroethene] + CCCCN(CCCC)CCCC
x2 = 0
Details	mass density, 298.15 K [kg/m3]	mass density, 303.15 K [kg/m3]	mass density, 308.15 K [kg/m3]	refractive index, 298.15 K	refractive index, 303.15 K	refractive index, 308.15 K	speed of sound, 298.15 K [m/s]	viscosity, 298.15 K [mPa·s]	viscosity, 303.15 K [mPa·s]	viscosity, 308.15 K [mPa·s]
[1]	–	–	–	1.5036	1.5005	1.4978	–	–	–	–
[2]	1616	1607.5	1597.5	–	–	–	1033	0.875	0.831	0.791

CCCCCCCCCCCCCC [tetradecane] + CCCCN(CCCC)CCCC
x2 = 0
Details	mass density, 298.15 K [kg/m3]	mass density, 303.15 K [kg/m3]	mass density, 308.15 K [kg/m3]	refractive index, 298.15 K	refractive index, 303.15 K	refractive index, 308.15 K	speed of sound, 298.15 K [m/s]	viscosity, 298.15 K [mPa·s]	viscosity, 303.15 K [mPa·s]	viscosity, 308.15 K [mPa·s]
[1]	–	–	–	1.4282	1.426	1.4236	–	–	–	–
[2]	760.7	757	753.3	–	–	–	1315	2.032	1.827	1.653

C1CCOC1 [tetrahydrofuran] + CCCCN(CCCC)CCCC
x2 = 0
Details	mass density, 298.15 K [kg/m3]	mass density, 303.15 K [kg/m3]	mass density, 308.15 K [kg/m3]	refractive index, 298.15 K	refractive index, 303.15 K	refractive index, 308.15 K	speed of sound, 298.15 K [m/s]	viscosity, 298.15 K [mPa·s]	viscosity, 303.15 K [mPa·s]	viscosity, 308.15 K [mPa·s]
[1]	–	–	–	1.4049	1.4026	1.3998	–	–	–	–
[2]	882.9	877.5	871.2	–	–	–	1288	0.485	0.46	0.439

CCCCN(CCCC)CCCC [tributylamine] + C1CCOC1
Details	mass density, [2] [kg/m3]	refractive index, [1]	speed of sound, [2] [m/s]	viscosity, [2] [mPa·s]
298.15 K, x1 = 0.1033	853.3	1.412	1283	0.571
298.15 K, x1 = 0.2033	833.4	1.415	1278	0.656
298.15 K, x1 = 0.3041	818.9	1.418	1274	0.741
298.15 K, x1 = 0.4012	808.1	1.42	1271	0.818
298.15 K, x1 = 0.5024	799.2	1.4229	1269	0.897
298.15 K, x1 = 0.5974	792.5	1.4235	1267	0.967
298.15 K, x1 = 0.6814	787.5	1.4249	1266	1.028
298.15 K, x1 = 0.7898	782.1	1.4265	1264	1.1
298.15 K, x1 = 0.8941	777.8	1.4269	1263	1.167
298.15 K, x1 = 1	773.9	1.4276	1262	1.239
303.15 K, x1 = 0.1033	847.9	1.4094	–	0.539
303.15 K, x1 = 0.2033	828.4	1.4141	–	0.618
303.15 K, x1 = 0.3041	814.2	1.4155	–	0.693
303.15 K, x1 = 0.4012	803.5	1.4178	–	0.763
303.15 K, x1 = 0.5024	794.7	1.4203	–	0.833
303.15 K, x1 = 0.5974	788.2	1.4211	–	0.896
303.15 K, x1 = 0.6814	783.1	1.4226	–	0.949
303.15 K, x1 = 0.7898	777.9	1.4238	–	1.014
303.15 K, x1 = 0.8941	773.6	1.4246	–	1.071
303.15 K, x1 = 1	769.2	1.4254	–	1.124
308.15 K, x1 = 0.1033	842.5	1.4068	–	0.509
308.15 K, x1 = 0.2033	823.5	–	–	0.581
308.15 K, x1 = 0.3041	809.3	1.413	–	0.646
308.15 K, x1 = 0.4012	798.9	1.4156	–	0.708
308.15 K, x1 = 0.5024	790.3	1.4178	–	0.769
308.15 K, x1 = 0.5974	783.8	1.4188	–	0.825
308.15 K, x1 = 0.6814	778.9	1.4203	–	0.871
308.15 K, x1 = 0.7898	773.6	1.4212	–	0.928
308.15 K, x1 = 0.8941	769.4	1.4224	–	0.976
308.15 K, x1 = 1	765.7	1.4228	–	1.02

CCCCN(CCCC)CCCC [tributylamine] + CCCCCCCCCCCCCC
Details	mass density, 298.15 K [kg/m3]	mass density, 303.15 K [kg/m3]	mass density, 308.15 K [kg/m3]	refractive index, 298.15 K	refractive index, 303.15 K	refractive index, 308.15 K	speed of sound, 298.15 K [m/s]	viscosity, 298.15 K [mPa·s]	viscosity, 303.15 K [mPa·s]	viscosity, 308.15 K [mPa·s]
[1], x1 = 0.1081	–	–	–	1.4283	1.4258	1.4234	–	–	–	–
[1], x1 = 0.2058	–	–	–	1.4282	1.4257	1.4234	–	–	–	–
[1], x1 = 0.2802	–	–	–	1.428	1.4256	1.4232	–	–	–	–
[1], x1 = 0.4095	–	–	–	1.4278	1.4254	1.4231	–	–	–	–
[1], x1 = 0.5112	–	–	–	1.4278	1.4254	1.423	–	–	–	–
[1], x1 = 0.6101	–	–	–	1.4278	1.4254	1.423	–	–	–	–
[1], x1 = 0.7051	–	–	–	1.4279	1.4255	1.4231	–	–	–	–
[1], x1 = 0.7999	–	–	–	1.4281	1.4256	1.4231	–	–	–	–
[1], x1 = 0.8953	–	–	–	1.428	1.4255	1.4231	–	–	–	–
[1], x1 = 1	–	–	–	1.4276	1.4255	1.4228	–	–	–	–
[2], x1 = 0.1081	761.9	758.1	754.4	–	–	–	1303	1.93	1.75	1.57
[2], x1 = 0.2058	762.9	759.2	755.5	–	–	–	1292	1.842	1.671	1.499
[2], x1 = 0.2802	763.8	760	756.3	–	–	–	1287	1.774	1.612	1.45
[2], x1 = 0.4095	765.3	761.5	757.8	–	–	–	1283	1.668	1.518	1.368
[2], x1 = 0.5112	766.6	762.9	759.1	–	–	–	1279	1.585	1.448	1.31
[2], x1 = 0.6101	767.9	764.2	760.5	–	–	–	1275	1.511	1.386	1.261
[2], x1 = 0.7051	769.3	765.5	761.9	–	–	–	1272	1.441	1.329	1.216
[2], x1 = 0.7999	770.9	767	763.1	–	–	–	1270	1.375	1.274	1.173
[2], x1 = 0.8953	772.4	768.4	764.4	–	–	–	1267	1.309	1.222	1.135
[2], x1 = 1	773.9	769.2	765.7	–	–	–	1262	1.239	1.124	1.103
